Experimental data from ChEMBL document CHEMBL5260810, “Inhibition of bromodomain-containing protein 9 for the prevention of epigenetically-defined drug resistance” (Bioorg Med Chem Lett, 2017).
The source made the active and inactive calls. No cut-off for these calls is given here.

How the values were obtained:
EJM [1] = assay: Cytotoxicity against human EJM cells measured after 8 days; type: functional, cell-based; details: 192 h
[2] = Cytotoxicity against mouse LA-4 cells measured after 8 days; type: functional, cell-based; details: LA-4, 192 h
[3] = Cytotoxicity against human NCI-H2461 cells measured after 8 days; type: functional, cell-based; details: NCI-H2461, 192 h
AM-38 = assay: Cytotoxicity against human AM-38 cells measured after 8 days; type: functional, cell-based; details: AM-38, 192 h
[4] = Cytotoxicity against human NCE-G 120 cells measured after 8 days; type: functional, cell-based; details: NCE-G 120, 192 h
[5] = Cytotoxicity against human KP-N-SI9s cells measured after 8 days; type: functional, cell-based; details: 192 h
SK-N-BE(2) = assay: Cytotoxicity against human SK-N-BE(2) cells measured after 8 days; type: functional, cell-based; details: SKNBE2, 192 h
SU-DHL-6 = assay: Cytotoxicity against human SU-DHL-6 cells measured after 8 days; type: functional, cell-based; details: SU-DHL-6, 192 h
[6] = Cytotoxicity against human COV413A cells measured after 8 days; type: functional, cell-based; details: 192 h
KURAMOCHI = assay: Cytotoxicity against human KURAMOCHI cells measured after 8 days; type: functional, cell-based; details: 192 h
[7] = Cytotoxicity against mouse JC cells measured after 8 days; type: functional, cell-based; details: 192 h
[8] = Cytotoxicity against human VP229 cells measured after 8 days; type: functional, cell-based; details: VP229, 192 h
Panc1005 = assay: Cytotoxicity against human Panc1005 cells measured after 8 days; type: functional, cell-based; details: Panc1005, 192 h
[9] = Cytotoxicity against human RKOE6 cells measured after 8 days; type: functional, cell-based; details: RKOE6, 192 h
SW1463 = assay: Cytotoxicity against human SW1463 cells measured after 8 days; type: functional, cell-based; details: SW1463, 192 h
[10] = Cytotoxicity against human 4498-14745 Mel-BR3 cells measured after 8 days; type: functional, cell-based; details: 4498-14745 Mel-BR3, 192 h
[11] = Cytotoxicity against human Mel 928 cells measured after 8 days; type: functional, cell-based; details: Mel 928, 192 h
KYSE-70 cell line = assay: Cytotoxicity against human KYSE-70 cell line measured after 8 days; type: functional, cell-based; details: KYSE-70, 192 h
[12] = Cytotoxicity against human COLO 853 cells measured after 8 days; type: functional, cell-based; details: COLO 853, 192 h
[13] = Cytotoxicity against human HSC-5 cells measured after 8 days; type: functional, cell-based; details: HSC-5, 192 h
Hep 3B2 = assay: Cytotoxicity against human Hep 3B2.1-7 cells measured after 8 days; type: functional, cell-based; details: Hep3B, 192 h
[14] = Cytotoxicity against human JHH7 cells measured after 8 days; type: functional, cell-based; details: JHH7, 192 h
SNU-475 [15] = assay: Cytotoxicity against human SNU-475 cells measured after 8 days; type: functional, cell-based; details: SNU-475, 192 h
NCI-N87 = assay: Cytotoxicity against human NCI-N87 cells measured after 8 days; type: functional, cell-based; details: NCI-N87, 192 h
[16] = Cytotoxicity against human RERF-GC-1B cells measured after 8 days; type: functional, cell-based; details: 192 h
SNU-638 = assay: Cytotoxicity against human SNU-638 cells measured after 8 days; type: functional, cell-based; details: SNU-638, 192 h
A549 = assay: Antiproliferative activity against human A549 cells assessed as reduction in colony formation up to 20 uM supplemented with fresh medium containing compound every 3 days for 9 days by MTT staining based clonogenic assay; type: functional, cell-based; details: time 9.0 day
HMV-2 cell line = assay: Antiproliferative activity against human HMV-2 cell line assessed as reduction in colony formation up to 20 uM supplemented with fresh medium containing compound every 3 days for 9 days by MTT staining based clonogenic assay; type: functional; details: time 9.0 day
Jurkat = assay: Cytotoxicity against human Jurkat cells measured after 3 days; type: functional, cell-based; details: 72 h
[17] = Cytotoxicity against human KHM-1B cells measured after 3 days; type: functional, cell-based; details: 72 h
[18] = Cytotoxicity against human JHH-1 cells measured after 3 days; type: functional, cell-based; details: JHH1, 72 h
SNU-387 = assay: Cytotoxicity against human SNU-387 cells measured after 3 days; type: functional, cell-based; details: SNU-387, 72 h
SNU-475 [19] = assay: Cytotoxicity against human SNU-475 cells measured after 3 days; type: functional, cell-based; details: SNU-475, 72 h
NCI-H2444 = assay: Cytotoxicity against human NCI-H2444 cells measured after 3 days; type: functional, cell-based; details: NCI-H2444, 72 h
[20] = Cytotoxicity against human HCC2450 cells measured after 3 days; type: functional, cell-based; details: HCC2450, 72 h
LP-1 = assay: Cytotoxicity against human LP-1 cells measured after 3 days; type: functional, cell-based; details: LP-1, 72 h
[21] = Cytotoxicity against human MOLP8 cells measured after 3 days; type: functional, cell-based; details: MOLP-8, 72 h
NALM-6 = assay: Cytotoxicity against human NALM-6 cells measured after 3 days; type: functional, cell-based; details: NALM-6, 72 h
EJM [22] = assay: Cytotoxicity against human EJM cells measured after 3 days; type: functional, cell-based; details: 72 h
KMS-12-PE = assay: Cytotoxicity against human KMS-12-PE cells measured after 3 days; type: functional, cell-based; details: 72 h
[23] = Cytotoxicity against human NCE-G 122 cells measured after 3 days; type: functional, cell-based; details: NCE-G 122, 72 h
IMR-32 = assay: Cytotoxicity against human IMR-32 cells measured after 3 days; type: functional, cell-based; details: IMR-32, 72 h
NCI-H647 = assay: Cytotoxicity against human NCI-H647 cells measured after 3 days; type: functional, cell-based; details: NCI-H647, 72 h
[24] = Cytotoxicity against human Ci-1 cells measured after 3 days; type: functional, cell-based; details: Ci-1, 72 h
RL = assay: Cytotoxicity against human RL cells measured after 3 days; type: functional, cell-based; details: 72 h
IGROV-1 = assay: Cytotoxicity against human IGROV-1 cells measured after 3 days; type: functional, cell-based; details: IGROV-1, 72 h
OAW-42 = assay: Cytotoxicity against human OAW-42 cells measured after 3 days; type: functional, cell-based; details: OAW-42, 72 h
MFM-223 = assay: Cytotoxicity against human MFM-223 cells measured after 3 days; type: functional, cell-based; details: MFM-223, 72 h
HCC1143 = assay: Cytotoxicity against human HCC1143 cells measured after 3 days; type: functional, cell-based; details: HCC1143, 72 h
HCC1419 = assay: Cytotoxicity against human HCC1419 cells measured after 3 days; type: functional, cell-based; details: HCC1419, 72 h
HBL-100 = assay: Cytotoxicity against human HBL-100 cells measured after 3 days; type: functional, cell-based; details: HBL-100, 72 h
[25] = Cytotoxicity against human MCAS cells measured after 3 days; type: functional, cell-based; details: 72 h
OVCAR-4 = assay: Cytotoxicity against human OVCAR-4 cells measured after 3 days; type: functional, cell-based; details: OVCAR-4, 72 h
PA-1 = assay: Cytotoxicity against human PA-1 cells measured after 3 days; type: functional, cell-based; details: PA-1, 72 h
TOV21G = assay: Cytotoxicity against human TOV-21G cells measured after 3 days; type: functional, cell-based; details: 72 h
[26] = Cytotoxicity against human COV434 cells measured after 3 days; type: functional, cell-based; details: COV434, 72 h
[27] = Cytotoxicity against human OVSAHO cells measured after 3 days; type: functional, cell-based; details: 72 h
[28] = Cytotoxicity against human BM-1604 cells measured after 3 days; type: functional, cell-based; details: BM-1604, 72 h
[29] = Cytotoxicity against human NTERA-2 cells after 8 days; type: functional, cell-based; details: NTERA2, 192 h
[30] = Cytotoxicity against human HCC15 cells after 8 days; type: functional, cell-based; details: HCC15, 192 h

SMILES: C/C=C/Cn1cc(-c2ccc(C(=O)N3CCOCC3)cc2)c2cc[nH]c2c1=O
- IC50 (EJM [1]): 20 µM
- IC50 [2]: 12 µM
- IC50 [3]: 20 µM
- IC50 (AM-38): 20 µM
- IC50 [4]: 20 µM
- IC50 [5]: 20 µM
- IC50 (SK-N-BE(2)): 20 µM
- IC50 (SU-DHL-6): 12.1 µM
- IC50 [6]: 20 µM
- IC50 (KURAMOCHI): 20 µM
- IC50 [7]: 20 µM
- IC50 [8]: 20 µM
- IC50 (Panc1005): 20 µM
- IC50 [9]: 20 µM
- IC50 (SW1463): 20 µM
- IC50 [10]: 20 µM
- IC50 [11]: 20 µM
- IC50 (KYSE-70 cell line): 20 µM
- IC50 [12]: 20 µM
- IC50 [13]: 20 µM
- IC50 (Hep 3B2): 20 µM
- IC50 [14]: 20 µM
- IC50 (SNU-475 [15]): 20 µM
- IC50 (NCI-N87): 20 µM
- IC50 [16]: 20 µM
- IC50 (SNU-638): 20 µM

SMILES: C/C=C/Cn1cc(-c2ccc(C(C)(C)O)cc2OC)c2cc[nH]c2c1=O
- Activity (A549): inactive
- Activity (HMV-2 cell line): inactive
- IC50 (EJM [1]): 20 µM
- IC50 [2]: 20 µM
- IC50 [3]: 20 µM
- IC50 (AM-38): 20 µM
- IC50 [4]: 20 µM
- IC50 [5]: 20 µM
- IC50 (SK-N-BE(2)): 20 µM
- IC50 (SU-DHL-6): 11.1 µM
- IC50 [6]: 20 µM
- IC50 (KURAMOCHI): 20 µM
- IC50 [7]: 20 µM
- IC50 [8]: 20 µM
- IC50 (Panc1005): 20 µM
- IC50 [9]: 20 µM
- IC50 (SW1463): 20 µM
- IC50 [10]: 20 µM
- IC50 [11]: 20 µM
- IC50 (KYSE-70 cell line): 20 µM
- IC50 [12]: 20 µM
- IC50 [13]: 20 µM
- IC50 (Hep 3B2): 20 µM
- IC50 [14]: 17.8 µM
- IC50 (SNU-475 [15]): 20 µM
- IC50 (NCI-N87): 20 µM
- IC50 [16]: 20 µM
- IC50 (SNU-638): 20 µM

SMILES: C/C=C/Cn1cc(-c2cc(OC)c(C(=O)N3CCOCC3)cc2OC)c2cc(C)[nH]c2c1=O
- IC50 (Jurkat): 5 µM
- IC50 [17]: 5 µM
- IC50 [18]: 5 µM
- IC50 (SNU-387): 5 µM
- IC50 (SNU-475 [19]): 5 µM
- IC50 (NCI-H2444): 5 µM
- IC50 [20]: 5 µM
- IC50 (LP-1): 5 µM
- IC50 [21]: 5 µM
- IC50 (NALM-6): 5 µM
- IC50 (EJM [22]): 5 µM
- IC50 (KMS-12-PE): 5 µM
- IC50 [23]: 5 µM
- IC50 (IMR-32): 5 µM
- IC50 (NCI-H647): 5 µM
- IC50 [24]: 5 µM
- IC50 (RL): 5 µM
- IC50 (IGROV-1): 5 µM
- IC50 (OAW-42): 5 µM
- IC50 (MFM-223): 5 µM
- IC50 (HCC1143): 5 µM
- IC50 (HCC1419): 5 µM
- IC50 (HBL-100): 5 µM
- IC50 [25]: 5 µM
- IC50 (OVCAR-4): 5 µM
- IC50 (PA-1): 5 µM
- IC50 (TOV21G): 5 µM
- IC50 [26]: 5 µM
- IC50 [27]: 5 µM
- IC50 [28]: 5 µM
- IC50 [29]: 2 µM
- IC50 [30]: 2 µM
